Experimental data as given in patent US20220275389A1, “MODIFIED EXOPOLYSACCHARIDE RECEPTORS FOR RECOGNIZING AND STRUCTURING MICROBIOTA” (Aarhus Universitet, priority 2019, published 2022).
Entries after “also recorded” stand apart in the source; their conditions may differ. Like-named read-outs stand apart in the source and are kept apart here.

Legend:
[1] = target: Lotus japonicus EPR3 ectodomain (EPR3 ED, residues 33-232), wild type, EPR3 SEQ ID NO: 61 (Lotus japonicus, UniProt D3KU53); assay: Microscale thermophoresis (MST) binding of EPS ligands to EPR3 ectodomain (ED); details: 100 nM EPR3 ED, pH 7.8, 25° C.; for Kd: 95% confidence interval, read-out: equilibrium dissociation constant (Kd)
Experimental: Expression and purification of L. japonicus ecotype Gifu EPR3 ectodomain (ED) was performed as described previously (Kawaharada, Y et al. Nature 2015 523: 308-312). In brief, DNA encoding residues 33-232 of EPR3 (corresponding to the EPR3 ED) containing an N-terminal gp67 secretion signal and a C-terminal 6×His-tag was codon-optimized for insect cell expression (GenScript) and inserted into the pOET2 vector (Oxford Expression Technologies). Baculoviruses, used for infecting Sf9 cells cultured in suspension in serum-free HyClone SFX-Insect medium (FisherScientific), were obtained using the flashBAC GOLD system (OET). Five days post inoculation, the media was dialyzed against buffer containing 50 mM Tris-HCl pH 8.0 and 200 mM NaCl before centrifugation and loaded on a HisTrap excel affinity column (GE Healthcare). The eluted protein was dialyzed against buffer containing 50 mM Tris-HCl pH 8.0 and 200 mM NaCl, and further purified on a HisTrap HP affinity column (GE Healthcare). For crystallization, the EPR3 ED was treated with PNGase F (1:15 w/w ratio) for 1 hour at room temperature and overnight at 4° C. to remove N-linked oligosaccharides. EPR3 ED was then purified on a Mono S 5/50 column (GE Healthcare) and eluted with a linear gradient of 50-300 mM NaCl and 50 mM Tris-HCl, pH 7.0. Both glycosylated and de-glycosylated EPR3 ED were finally purified on a Superdex 75 10/300 column (GE Healthcare) in gel filtration buffer containing 50 mM KH2-PO4 pH 7.8 and 200 mM NaCl (for microscale thermophoresis binding experiments) or 50 mM Tris-HCl pH 8.0 and 200 mM NaCl (for crystallization).
Low molecular mass (LMM) exopolysaccharides (EPS) were isolated from various rhizobial strains including Mesorhizobium loti strain R7A ndvB6, R. leguminosarum bv. viciae 3855 (this work) and Sinorhizobium meliloti B578 (Griffins, J. S. et al. Mol. Microbiol. 2008 69: 479-490) that were deficient in cyclic glucan production were grown on minimal media with glucose as the sole source of carbon. The LMM EPS was isolated from the bacterial culture supernatants and purified via sequential precipitation with 6 volumes of 99.8% EtOH (v/v), followed by 9 volumes EtOH (v/v) and purified by size exclusion chromatography (SEC) as previously described (Muszyński, A. et al. J. Biol. Chem. 2016 291: 20946-20961). O-acetyl groups were removed chemically by mild overnight treatment of native EPS samples with 12.5% NH4OH (Muszyński, A. et al. J. Biol. Chem. 2016 291: 20946-20961). […] The glycosyl composition and linkage was determined as previously described (Muszyński, A. et al. J. Biol. Chem. 2016 291: 20946-20961). […]

[2] = target: Lotus japonicus EPR3a ectodomain (EPR3a ED), wild type, EPR3a SEQ ID NO: 62; assay: Microscale thermophoresis (MST) binding of polysaccharides to EPR3a ectodomain (ED); details: for Kd: FIGS. 11E-11H, preparation of FIG. 11D
Experimental: Low molecular mass (LMM) exopolysaccharides (EPS) were isolated from various rhizobial strains including Mesorhizobium loti strain R7A ndvB6, R. leguminosarum bv. viciae 3855 (this work) and Sinorhizobium meliloti B578 (Griffins, J. S. et al. Mol. Microbiol. 2008 69: 479-490) that were deficient in cyclic glucan production were grown on minimal media with glucose as the sole source of carbon. The LMM EPS was isolated from the bacterial culture supernatants and purified via sequential precipitation with 6 volumes of 99.8% EtOH (v/v), followed by 9 volumes EtOH (v/v) and purified by size exclusion chromatography (SEC) as previously described (Muszyński, A. et al. J. Biol. Chem. 2016 291: 20946-20961). O-acetyl groups were removed chemically by mild overnight treatment of native EPS samples with 12.5% NH4OH (Muszyński, A. et al. J. Biol. Chem. 2016 291: 20946-20961). Native and de-O-acetylated samples were verified via matrix-assisted laser desorption/ionization time of flight mass spectrometry (MALDI-TOF MS) analysis on Applied Biosystems AB SCIEX TOF/TOF 5800 system in either negative or positive reflector ionization modes. The glycosyl composition and linkage was determined as previously described (Muszyński, A. et al. J. Biol. Chem. 2016 291: 20946-20961).
Purified EPR3 was fluorescently labeled using the Monolith NT.115TM Protein Labelling Kit Blue NHS (NanoTemper Technologies) according to the manufacturer's instructions. […] To accurately account for this unspecific binding ligand binding to 50 nM free fluorescent label was measured and this small background was subtracted contribution from all the respective MST binding measurements. […] Binding data were processed with the GraphPad Prism 7 software (GraphPad Software, Inc.) and the equilibrium dissociation constants (Kd) values (95% confidence interval) were calculated using the sigmoidal dose-response equations. […]

L. japonicus EPR3a ED = assay: Microscale thermophoresis (MST) binding to EPR3a ED; details: for binding of EPR3a ED to polysaccharide (detectable or not): FIGS. 11I-11J
Experimental: Purified EPR3 was fluorescently labeled using the Monolith NT.115TM Protein Labelling Kit Blue NHS (NanoTemper Technologies) according to the manufacturer's instructions. All experiments were performed in MST buffer (50 mM K2PO4, pH 7.8, 500 mM NaCl, and 0.05% Tween-20) with a constant concentration of EPR3 ED (100 nM and ˜50% labelling efficiency) and dilution series of the various ligands. The samples were incubated for 30 minutes at room temperature before loaded into standard capillaries for measurements on a Monolith NT.115 TM instrument (NanoTemper Technologies) at 25° C., with blue LED power of 50% and MST power of 20%. To accurately measure the experimental errors and ensure data reproducibility, all MST binding experiments were performed with at least three independently purified samples of EPR3. At the highest ligand concentrations, weak ligand binding to the fluorescent label itself was occasionally observed. To accurately account for this unspecific binding ligand binding to 50 nM free fluorescent label was measured and this small background was subtracted contribution from all the respective MST binding measurements. The competition experiments were performed by pre-incubating labeled EPR3 ED with 250 μM R7A EPS or R7A exoU EPS and assessing the binding of EPR3 ED to titrated R7A exoU EPS or R7A EPS, respectively. Binding data were processed with the GraphPad Prism 7 software (GraphPad Software, Inc.) and the equilibrium dissociation constants (Kd) values (95% confidence interval) were calculated using the sigmoidal dose-response equations.
The EPR3a ED was expressed in insect cells, and the protein was purified as described in Example 1 (FIG. 11D).
MST experiments were performed as described in Example 2 (FIG. 11C, FIGS. 11E-11J).

[3] = FIGS. 11E-11H, n=3, EPR3a ED preparation of FIG. 11D (figure legend), read-out: equilibrium dissociation constant (Kd)

Chain of Lotus japonicus EPR3 ectodomain (EPR3 ED, residues 33-232), wild type, EPR3 SEQ ID NO: 61 (D3KU53 entry or part of it): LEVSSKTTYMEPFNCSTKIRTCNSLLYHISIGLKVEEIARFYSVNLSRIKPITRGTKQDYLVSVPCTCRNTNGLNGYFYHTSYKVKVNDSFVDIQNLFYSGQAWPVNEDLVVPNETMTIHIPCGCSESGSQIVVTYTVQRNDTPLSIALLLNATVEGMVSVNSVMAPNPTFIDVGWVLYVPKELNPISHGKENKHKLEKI

Q: CC(=O)N[C@H]1[C@H](O[C@H]2[C@H](O)[C@@H](NC(C)=O)[C@H](O[C@H]3[C@H](O)[C@@H](NC(C)=O)C(O)O[C@@H]3CO)O[C@@H]2CO)O[C@H](CO)[C@@H](O[C@@H]2O[C@H](CO)[C@@H](O[C@@H]3O[C@H](CO)[C@@H](O[C@@H]4O[C@H](CO)[C@@H](O)[C@H](O)[C@H]4NC(C)=O)[C@H](O)[C@H]3NC(C)=O)[C@H](O)[C@H]2NC(C)=O)[C@@H]1O (stereo partly shown) [C06, Chitohexose] was tested. Which binding [1] did it give?
A: The binding was “unable to bind”.

Q: Which results are given for O=C(O)[C@H]1O[C@@H](O[C@H]2[C@H](O)[C@@H](O)[C@@H](O[C@H]3[C@H](O)[C@@H](O)[C@H](OC[C@H]4O[C@@H](OC[C@H]5O[C@@H](O[C@H]6[C@H](O)[C@@H](O)[C@H](O[C@H]7[C@H](O)[C@@H](O)[C@H](O[C@H]8[C@@H](O)[C@@H](CO)OC(O)[C@@H]8O)O[C@@H]7CO)O[C@@H]6CO)[C@H](O)[C@@H](O)[C@@H]5O)[C@H](O)[C@@H](O)[C@@H]4O)O[C@@H]3CO)O[C@@H]2C(=O)O)[C@H](O)[C@@H]1O (stereo partly shown) [R7A deOAc-EPS]?
A: Kd [1]: 31.3 ± 11.7 µM; Kd ([2]; n=3, figure legend, read-out: equilibrium dissociation constant (Kd)): 57.2 ± 15.6 µM; Kd ([2]; read-out: equilibrium dissociation constant of Kd): 57.2 ± 15.6 µM

Q: For CC(=O)N[C@H]1[C@H](O[C@H]2[C@H](O)[C@@H](NC(C)=O)C(O)O[C@@H]2CO)O[C@H](CO)[C@@H](O[C@@H]2O[C@H](CO)[C@@H](O[C@@H]3O[C@H](CO)[C@@H](O)[C@H](O)[C@H]3NC(C)=O)[C@H](O)[C@H]2NC(C)=O)[C@@H]1O (stereo partly shown) [chitotetraose], which “binding of EPR3a ED to polysaccharide (detectable or not)” value (from here on “binding … (detectable or not)”) (L. japonicus EPR3a ED; n=3) is on record?
A: Its value is “absence of binding”.

Q: What about the “binding … (detectable or not)” value (L. japonicus EPR3a ED; n=3, listed as chitin) of the same compound?
A: The value was “did not bind”.

Q: What about the binding ([2]; FIG. 11I, n=3) of the same compound?
A: The binding was “did not bind; also recorded: absence of binding”.

Q: For “(2,3/3-OAc)β-D-RibfA-(1→4)-a-D-GlcpA-(1→4)-β-D-Glcp-(1→6)-(3OAc)β-D-Glcp-(1→6)-(2OAc)β-D-Glcp-(1→4)-(2/3OAc)β-D-Glcp-(1→4)-β-D-Glcp-(1→3)-β-D-Galp [R7A EPS] [listing 1 of 2 here]”, which Kd (L. japonicus EPR3a ED; FIG. 11C, R^2=0.98, read-out: equilibrium dissociation constant (Kd)) is on record?
A: Its Kd is 25.6 µM.

Q: What about the Kd (L. japonicus EPR3a ED; [3]) of the same compound?
A: Its Kd is 44.4 ± 11.2 µM.

Q: For “(2,3/3-OAc)β-D-RibfA-(1→4)-a-D-GlcpA-(1→4)-β-D-Glcp-(1→6)-(3OAc)β-D-Glcp-(1→6)-(2OAc)β-D-Glcp-(1→4)-(2/3OAc)β-D-Glcp-(1→4)-β-D-Glcp-(1→3)-β-D-Galp [R7A EPS] [listing 2 of 2 here]”, which Kd [1] is on record?
A: Its Kd is 38.1 ± 7.5 µM.

Q: With S. meliloti EPS [listing 1 of 2 here] as the compound, how does the Kd (L. japonicus EPR3a ED; [3]) read?
A: The Kd was 937 ± 389 µM.

Q: How did the Kd [1] turn out when S. meliloti EPS [listing 2 of 2 here] was run?
A: Its Kd is 222 ± 102 µM.

Q: How did the “binding … (detectable or not)” value (L. japonicus EPR3a ED; n=3) turn out when maltodextrin was run?
A: The value was “did not bind; also recorded: absence of binding”.
